According to US7537891B2, “Identification of polynucleotides for predicting activity of compounds that interact with and/or modulate protein tyrosine kinases and/or protein tyrosine kinase pathways in breast cells” (Bristol-Myers Squibb Company, priority 2002, dated 2009):

Assays:
Format in all cases: cell-based, human
AU-565 breast cell line = experiment: In vitro cytotoxicity assay (MTS); set-up: key to True Class: “S” represents Sensitive; “R” represents Resistant
Protocol: (§1) The protein tyrosine kinase inhibitor compound (described in international application WO 00/62778, published Oct. 26, 2000) was tested for cytotoxicity in vitro against a panel of twenty-three human breast cell lines available from the American Type Culture Collection, ATCC, except H3396, which was obtained from Pacific Northwest Research Institute, Seattle Wash. The MCF7/Her2 cell line was established by stable transfection of MCF7 cells with the HER2 gene. Cytotoxicity was assessed in cells by the MTS (3-(4,5-dimethylthiazol-2-yl)-5-(3-carboxymethoxyphenyl)-2-(4-sulphenyl)-2H-tetrazolium, inner salt) assay (T. L. Riss et al., 1992, Mol. Biol. Cell, 3 (Suppl.):184a).
(§2) To carry out the assays, the breast cells were plated at 4,000 cells/well in 96 well microtiter plates, and 24 hours later, serially diluted drugs were added. The concentration range for the protein tyrosine kinase inhibitor compound BMS-A used in the cytotoxicity assay was from 5 μg/ml to 0.0016 μg/ml (roughly 10 μM to 0.0032 μM).
(§3) The cells were incubated at 37° C. for 72 hours at which time the tetrazolium dye, MTS (333 μg/ml final concentration), in combination with the electron coupling agent phenazine methosulfate (25 μM final concentration), was added. A dehydrogenase enzyme in live cells reduces the MTS to a form that absorbs light and can be quantified spectrophotometrically at 492 nM. The greater the absorbency the greater the number of live cells. The results are expressed as an IC50, which is the drug concentration required to inhibit cell proliferation (i.e. absorbance at 492 nm) to 50% of that of untreated control cells. The mean IC50 and standard deviation (SD) from multiple tests for each cell line were calculated.

BT-474 breast cell line = experiment: In vitro cytotoxicity assay (MTS); set-up: key to True Class: “S” represents Sensitive; “R” represents Resistant
Protocol: as §1, §2, §3

H3396 breast cell line = experiment: In vitro cytotoxicity assay (MTS); set-up: key to True Class: “S” represents Sensitive; “R” represents Resistant
Protocol: as §1, §2, §3

HCC1806 breast cell line = experiment: In vitro cytotoxicity assay (MTS); set-up: key to True Class: “S” represents Sensitive; “R” represents Resistant
Protocol: as §1, §2, §3

HCC1954 breast cell line = experiment: In vitro cytotoxicity assay (MTS); set-up: key to True Class: “S” represents Sensitive; “R” represents Resistant
Protocol: as §1, §2, §3

HCC38 breast cell line = experiment: In vitro cytotoxicity assay (MTS); set-up: key to True Class: “S” represents Sensitive; “R” represents Resistant
Protocol: as §1, §2, §3

MCF7 breast cell line = experiment: In vitro cytotoxicity assay (MTS); set-up: key to True Class: “S” represents Sensitive; “R” represents Resistant
Protocol: as §1, §2, §3

[1] = tested on: MDA-MB-157 breast cell line; experiment: In vitro cytotoxicity assay (MTS); set-up: key to True Class: “S” represents Sensitive; “R” represents Resistant
Protocol: as §1, §2, §3

[2] = tested on: MDA-MB-435S breast cell line; experiment: In vitro cytotoxicity assay (MTS); set-up: key to True Class: “S” represents Sensitive; “R” represents Resistant
Protocol: as §1, §2, §3

[3] = tested on: MDA-MB-436 breast cell line; experiment: In vitro cytotoxicity assay (MTS); set-up: key to True Class: “S” represents Sensitive; “R” represents Resistant
Protocol: as §1, §2, §3

ZR-75-1 breast cell line = experiment: In vitro cytotoxicity assay (MTS); set-up: key to True Class: “S” represents Sensitive; “R” represents Resistant
Protocol: as §1, §2, §3

[4] = tested on: ZR-75-30 breast cell line; experiment: In vitro cytotoxicity assay (MTS); set-up: key to True Class: “S” represents Sensitive; “R” represents Resistant
Protocol: as §1, §2, §3

[5] = tested on: HCC 1395 breast cancer cell line; experiment: In vitro cytotoxicity assay (MTS), additional breast cancer cell lines; conditions: read-out: IC50 (μM) to BMS-A
Protocol: as §1, §2, §3
(§4) The ability of the 137 predictor polynucleotides and polypeptides of the present invention to predict which cell lines are sensitive or resistant to compound BMS-A was further evaluated by testing 12 new breast cancer cell lines that were never used in the identification of these polynucleotides. Assays were performed as described in Example 1 herein.
(§5) The cell lines with a IC50 below 1 μM were defined as sensitive to the compound, while those having a IC50 above 1 μM were considered to be resistant. The gene expression profiling for the 12 breast cancer cell lines was performed using Affymetrix gene chip Hu-U133 sets as described in Example 1.

[6] = tested on: HCC 1500 breast cancer cell line; experiment: as above; conditions: read-out: IC50 (μM) to BMS-A
Protocol: as §1, §2, §3, §4, §5

[7] = tested on: HCC 202 breast cancer cell line; experiment: as above; conditions: read-out: IC50 (μM) to BMS-A
Protocol: as §1, §2, §3, §4, §5

[8] = tested on: HCC 2157 breast cancer cell line; experiment: as above; conditions: read-out: IC50 (μM) to BMS-A
Protocol: as §1, §2, §3, §4, §5

[9] = 72 hours, mean of 2 to 5 determinations, read-out: mean IC50 (μM) to BMS-A
[10] = assigned as in Table 1, based on the IC50 results for BMS-A
[11] = resistance/sensitivity to BMS-A based on IC50

**Q.** Which results are given for `Cc1nc(Nc2ncc(C(=O)Nc3c(C)cccc3Cl)s2)cc(N2CCN(CCO)CC2)n1` [BMS-A]?
**A.** True Class (AU-565 breast cell line; AU565, assigned as in Table 1, based on the IC50 results for BMS-A): R; IC50 (AU-565 breast cell line; AU-565, 72 hours, mean of 2 to 5 determinations, read-out: mean IC50 (μM) to BMS-A): 5.24 µM; Classification (AU-565 breast cell line; AU-565, resistance/sensitivity to BMS-A based on IC50): Resistant (those having a log10(IC50) above the mean log10(IC50) were considered to be resistant); True Class (BT-474 breast cell line; BT474, assigned as in Table 1, based on the IC50 results for BMS-A): R; IC50 (BT-474 breast cell line; BT-474, 72 hours, mean of 2 to 5 determinations, read-out: mean IC50 (μM) to BMS-A): 6.74 µM; Classification (BT-474 breast cell line; BT-474, resistance/sensitivity to BMS-A based on IC50): Resistant (those having a log10(IC50) above the mean log10(IC50) were considered to be resistant); IC50 (H3396 breast cell line; [9]): 8.2 µM; True Class (H3396 breast cell line; [10]): R; Classification (H3396 breast cell line; [11]): Resistant (those having a log10(IC50) above the mean log10(IC50) were considered to be resistant); IC50 (HCC1806 breast cell line; [9]): 0.219 µM; True Class (HCC1806 breast cell line; [10]): S; Classification (HCC1806 breast cell line; [11]): Sensitive (The cell lines with a log10(IC50) below the mean log10(IC50) were defined as sensitive to the compound); IC50 (HCC1954 breast cell line; [9]): 0.0242 µM; True Class (HCC1954 breast cell line; [10]): S; Classification (HCC1954 breast cell line; [11]): Sensitive (The cell lines with a log10(IC50) below the mean log10(IC50) were defined as sensitive to the compound); IC50 (HCC38 breast cell line; [9]): 6.63 µM; True Class (HCC38 breast cell line; [10]): R; Classification (HCC38 breast cell line; [11]): Resistant (those having a log10(IC50) above the mean log10(IC50) were considered to be resistant); IC50 (MCF7 breast cell line; [9]): > 9.52 µM; True Class (MCF7 breast cell line; [10]): R; Classification (MCF7 breast cell line; [11]): Resistant (those having a log10(IC50) above the mean log10(IC50) were considered to be resistant); IC50 ([1]; MDA-MB-157, 72 hours, mean of 2 to 5 determinations, read-out: mean IC50 (μM) to BMS-A): 0.0055 µM; Classification ([1]; MDA-MB-157, resistance/sensitivity to BMS-A based on IC50): Sensitive (The cell lines with a log10(IC50) below the mean log10(IC50) were defined as sensitive to the compound); True Class ([1]; MDAMB157, assigned as in Table 1, based on the IC50 results for BMS-A): S; IC50 ([2]; MDA-MB-435S, 72 hours, mean of 2 to 5 determinations, read-out: mean IC50 (μM) to BMS-A): 7.78 µM; Classification ([2]; MDA-MB-435S, resistance/sensitivity to BMS-A based on IC50): Resistant (those having a log10(IC50) above the mean log10(IC50) were considered to be resistant); True Class ([2]; MDAMB435S, assigned as in Table 1, based on the IC50 results for BMS-A): R; IC50 ([3]; MDA-MB-436, 72 hours, mean of 2 to 5 determinations, read-out: mean IC50 (μM) to BMS-A): > 9.52 µM; Classification ([3]; MDA-MB-436, resistance/sensitivity to BMS-A based on IC50): Resistant (those having a log10(IC50) above the mean log10(IC50) were considered to be resistant); True Class ([3]; MDAMB436, assigned as in Table 1, based on the IC50 results for BMS-A): R; IC50 (ZR-75-1 breast cell line; ZR-75-1, 72 hours, mean of 2 to 5 determinations, read-out: mean IC50 (μM) to BMS-A): > 9.52 µM; Classification (ZR-75-1 breast cell line; ZR-75-1, resistance/sensitivity to BMS-A based on IC50): Resistant (those having a log10(IC50) above the mean log10(IC50) were considered to be resistant); True Class (ZR-75-1 breast cell line; Zr-75-1, assigned as in Table 1, based on the IC50 results for BMS-A): R; IC50 ([4]; ZR-75-30, 72 hours, mean of 2 to 5 determinations, read-out: mean IC50 (μM) to BMS-A): 9.26 µM; Classification ([4]; ZR-75-30, resistance/sensitivity to BMS-A based on IC50): Resistant (those having a log10(IC50) above the mean log10(IC50) were considered to be resistant); True Class ([4]; Zr-75-30, assigned as in Table 1, based on the IC50 results for BMS-A): R; IC50 [5]: 0.0818 µM; IC50 [6]: > 8.93 µM; IC50 [7]: 5.58 µM; IC50 [8]: 5.45 µM
